Source: ChEMBL document CHEMBL1148240, “3-hydroxy-quinazoline-2,4-dione as a useful scaffold to obtain selective Gly/NMDA and AMPA receptor antagonists” (Bioorg Med Chem Lett, 2004)

Tests used:
[1] = molecular target: Glutamate receptor ionotropic, kainate; experiment: Ability of compound to displace [3H]- kainate from ionotropic glutamate receptor kainate in rat cortical membranes; assay type: cell membranes, Membrane
[2] = molecular target: T1, Glutamate receptor ionotropic, AMPA (Rattus norvegicus, UniProt P19490+P19491+P19492+P19493)
Description: Inhibitory concentration of compound for depolarization induced by 5 uM S-AMPA in mouse cortical wedge preparation

[3] = molecular target: T1, Glutamate receptor ionotropic, AMPA; experiment: Ability of compound to displace [3H]AMPA from Ionotropic glutamate receptor AMPA in rat cerebral cortex synaptic membranes; assay type: cell membranes, Membrane
[4] = organism: Rattus norvegicus; experiment: Ability of compound to inhibit the binding of the channel blocking agent [3H](+)-MK-801 in rat cortical membranes at 100 uM concentration; assay type: cell membranes; conditions: Membrane
[5] = molecular target: Glutamate receptor ionotropic, NMDA 1 (Rattus norvegicus, UniProt P35439); experiment: Ability of compound to displace [3H]glycine from N-methyl-D-aspartate glutamate receptor 1 from in cerebral cortex synaptic membranes; assay type: cell membranes
[6] = molecular target: Glutamate NMDA receptor; experiment: Inhibitory concentration of compound for depolarization induced by 5 uM NMDA in mouse cortical wedge preparation; assay type: protein-complex assay
[7] = Ability of compound to inhibit the binding of the channel blocking agent [3H](+)-MK-801 in rat cortical membranes; assay type: cell membranes, Membrane
[8] = molecular target: Glutamate NMDA receptor

## O=c1[nH]c2cc(Cl)c(-n3cnnc3)cc2c(=O)n1O
[1]
  IC50: 7 µM
[2]
  IC50: 4.6 µM
[3]
  Ki: 0.25 µM
[4]
  inhibition: 29%
[5]
  Ki: > 100 µM
[6]
  IC50: 84 µM

## Nc1cc2c(=O)n(O)c(=O)[nH]c2cc1Cl
[1]
  IC50: 70 µM
[3]
  Ki: 9.7 µM
[5]
  Ki: 10.6 µM
[7]
  IC50: 89 µM

## O=c1[nH]c2cc(Cl)c([N+](=O)[O-])cc2c(=O)n1O
[1]
  IC50: 19.2 µM
[2]
  IC50: 29 µM
[3]
  Ki: 1.3 µM
[5]
  Ki: 1.1 µM
[6]
  IC50: 36 µM
[7]
  IC50: 1.7 µM

## O=c1[nH]c2cc(Cl)c(Cl)cc2c(=O)n1O
[1]
  IC50: 68 µM
[3]
  Ki: 12.5 µM
[5]
  Ki: 0.3 µM
[7]
  IC50: 0.43 µM

## O=c1[nH]c2cc(Cl)ccc2c(=O)n1O
[1]
  IC50: 140 µM
[3]
  Ki: 11.6 µM
[5]
  Ki: 0.24 µM
[7]
  IC50: 4.8 µM

## O=c1[nH]c2cc(Cl)cc(Cl)c2c(=O)n1O
[1]
  IC50: 52 µM
[2]
  IC50: 33 µM
[3]
  Ki: 9.8 µM
[5]
  Ki: 0.2 µM
[6]
  IC50: 42 µM
[7]
  IC50: 0.75 µM

## O=C(O)c1cc(O)c2c(Cl)cc(Cl)cc2n1
[8]
  Ki: 4.7 µM

## O=c1[nH]c2cc(Cl)cc(Cl)c2c(=O)n1-c1ccccc1
[5]
  Ki: 23 µM
